Counter-ions that a name gives are not always drawn.
How the values were obtained:
Details in all cases: 72 h
HepG2 [1] = assay: drug sensitivity score (DSS) for viability; higher = more toxic; extreme values may be limits of the assay
Calu-3 [2] = assay: as above
Vero E6 [3] = assay: as above
U2OS [4] = assay: as above
Caco-2 [5] = assay: as above
HepG2 [6] = assay: cell viability relative to DMSO; higher = less toxic
Calu-3 [7] = assay: as above
Vero E6 [8] = assay: as above
Caco-2 [9] = assay: as above
U2OS [10] = assay: as above
HepG2 [11] = assay: relative viability EC50 (midpoint between 100% and the lowest measured viability); higher = less toxic
Caco-2 [12] = assay: as above
U2OS [13] = assay: as above
Calu-3 [14] = assay: as above

| Compound | drug sensitivity score (HepG2 [1]) | drug sensitivity score (Calu-3 [2]) | drug sensitivity score (Vero E6 [3]) | drug sensitivity score (U2OS [4]) | drug sensitivity score (Caco-2 [5]) | cell viability (HepG2 [6]; 1 nM) | cell viability (HepG2 [6]; 10 nM) | cell viability (HepG2 [6]; 100 nM) | cell viability (HepG2 [6]; 1000 nM) | cell viability (HepG2 [6]; 10000 nM) | cell viability (Calu-3 [7]; 1 nM) | cell viability (Calu-3 [7]; 10 nM) | cell viability (Calu-3 [7]; 100 nM) | cell viability (Calu-3 [7]; 1000 nM) | cell viability (Calu-3 [7]; 10000 nM) | cell viability (Vero E6 [8]; 1 nM) | cell viability (Vero E6 [8]; 10 nM) | cell viability (Vero E6 [8]; 100 nM) | cell viability (Vero E6 [8]; 1000 nM) | cell viability (Vero E6 [8]; 10000 nM) | cell viability (Caco-2 [9]; 1 nM) | cell viability (Caco-2 [9]; 10 nM) | cell viability (Caco-2 [9]; 100 nM) | cell viability (Caco-2 [9]; 1000 nM) | cell viability (Caco-2 [9]; 10000 nM) | cell viability (U2OS [10]; 1 nM) | cell viability (U2OS [10]; 10 nM) | cell viability (U2OS [10]; 100 nM) | cell viability (U2OS [10]; 1000 nM) | cell viability (U2OS [10]; 10000 nM) | relative viability EC50 (HepG2 [11]) | relative viability EC50 (Caco-2 [12]) | relative viability EC50 (U2OS [13]) | relative viability EC50 (Calu-3 [14]) |
| --- | --- | --- | --- | --- | --- | --- | --- | --- | --- | --- | --- | --- | --- | --- | --- | --- | --- | --- | --- | --- | --- | --- | --- | --- | --- | --- | --- | --- | --- | --- | --- | --- | --- | --- |
| CC1CS(=O)(=O)CCN1/N=C/c1ccc([N+](=O)[O-])o1 (stereo not given) [nifurtimox] | 0 | 0 | 0 | 0 | – | – | – | – | – | – | – | – | – | – | – | – | – | – | – | – | – | – | – | – | – | – | – | – | – | – | – | – | – | – |
| CC(=O)O[C@H]1C(=O)[C@@]2(C)[C@H]([C@H](OC(=O)c3ccccc3)[C@]3(O)C[C@H](OC(=O)[C@H](O)[C@@H](NC(=O)c4ccccc4)c4ccccc4)C(C)=C1C3(C)C)[C@]1(OC(C)=O)CO[C@@H]1C[C@@H]2O [paclitaxel] | 24.9 | 16.4 | 8.6 | 25.9 | 14.7 | 108% | 64.9% | 42.8% | 36.5% | 34.4% | 97.9% | 64.3% | 62.6% | 68.5% | 65.7% | 103% | 98.3% | 91.6% | 59.8% | 74.2% | 109% | 84.8% | 61.7% | 57% | 48.7% | 101% | 67.9% | 32.9% | 30.3% | 26.3% | 0.0095 µM | 0.0334 µM | 0.0128 µM | – |
| O=C(OCC(COC(=O)c1cccnc1)(COC(=O)c1cccnc1)COC(=O)c1cccnc1)c1cccnc1 [niceritrol] | 0 | 0 | 1.5 | 0 | 0 | 93.7% | 94.1% | 92.7% | 98.2% | 101% | 98.5% | 108% | 101% | 106% | 115% | 92.6% | 103% | 96.8% | 96.9% | 73.8% | 93.9% | 88.4% | 92.7% | 93.3% | 86.9% | 102% | 104% | 101% | 101% | 98.8% | > 10 µM | > 10 µM | > 10 µM | > 10 µM |
| c1cc(Cc2cnc[nH]2)ccn1 [immethridine] | 0 | 0 | – | 0 | 0 | 93.8% | 104% | 99.1% | 93.4% | 97% | 107% | 96.8% | 94.6% | 94.8% | 103% | – | – | – | – | – | 99.7% | 103% | 95% | 97.1% | 90.3% | 94.1% | 99.9% | 97.4% | 102% | 98.4% | > 10 µM | > 10 µM | > 10 µM | > 10 µM |
| CN1CCC(NC(=O)c2cc(-c3c(O)cc(O)cc3Oc3ccc([N+](=O)[O-])cc3)on2)CC1 [NMS-E973] | 23.6 | 7 | 1.4 | 13.6 | 8.3 | 108% | 101% | 55% | 0.9% | 0.9% | 93.7% | 101% | 90.4% | 68.4% | 44% | 109% | 100% | 106% | 108% | 62.2% | 99.1% | 97.8% | 101% | 61.3% | 33.7% | 94.2% | 103% | 99.5% | 28.2% | 3.7% | 0.108 µM | 0.874 µM | 0.65 µM | 0.669 µM |
| O=C(O)c1cn(-c2ccc(F)cc2)c2cc(N3CCNCC3)c(F)cc2c1=O [sarafloxacin] | 0 | 0 | – | 0 | 0 | 113% | 98.8% | 101% | 94.4% | 99.6% | 93.1% | 95.7% | 102% | 99.7% | 101% | – | – | – | – | – | 98.3% | 87.3% | 95.6% | 98% | 97.4% | 101% | 108% | 99.2% | 100% | 97.4% | > 10 µM | > 10 µM | > 10 µM | > 10 µM |
| Cc1cccc2c1CC[C@H](CN1CCC(c3c(Cl)cccc3Cl)CC1)C[C@@H]2O | 5.5 | 4.2 | 2.2 | 2.8 | 4.7 | 104% | 102% | 93.3% | 86.5% | 38.5% | 93.8% | 106% | 89.1% | 83.8% | 51.2% | 99.2% | 104% | 95% | 90.2% | 70% | 93.9% | 95.8% | 91.3% | 78.3% | 58.1% | 102% | 106% | 95.2% | 94.2% | 62.1% | 1.65 µM | – | – | – |
| CNC(=O)c1c(I)c(C(=O)NCC(=O)Nc2c(I)c(C(=O)O)c(I)c(C(=O)NCCO)c2I)c(I)c(N(C)C(C)=O)c1I [ioxaglic-acid] | 0 | 0 | – | 0 | 0 | 95.9% | 98.4% | 94% | 98.2% | 96.9% | 109% | 101% | 97.2% | 102% | 95.5% | – | – | – | – | – | 104% | 92.4% | 106% | 100% | 103% | 106% | 96.9% | 102% | 101% | 104% | > 10 µM | > 10 µM | > 10 µM | > 10 µM |
| CN[C@@H]1[C@H](O[C@H]2[C@H](O[C@H]3[C@H](O)[C@@H](O)[C@H](NC(=N)N)[C@@H](O)[C@@H]3NC(=N)N)O[C@@H](C)[C@]2(O)CO)O[C@@H](CO)[C@H](O)[C@H]1O [dihydrostreptomycin] | 0 | 0 | – | 0 | 0 | 109% | 100% | 101% | 105% | 98.5% | 97.8% | 97.1% | 106% | 96.9% | 94.8% | – | – | – | – | – | 99.2% | 94.3% | 97.6% | 93.8% | 104% | 102% | 105% | 97.3% | 107% | 97.3% | > 10 µM | > 10 µM | > 10 µM | > 10 µM |
| CO[C@H]1C[C@@H]2CC[C@@H](C)[C@@](O)(O2)C(=O)C(=O)N2CCCC[C@H]2C(=O)O[C@H]([C@H](C)C[C@@H]2CC[C@H](n3cnnn3)[C@H](OC)C2)CC(=O)[C@H](C)/C=C(\C)[C@@H](O)[C@@H](OC)C(=O)[C@H](C)C[C@H](C)/C=C/C=C/C=C/1C [zotarolimus] | 15.4 | 22.1 | 11.9 | 19.9 | 19.5 | 84.4% | 74% | 63.1% | 62.9% | 61.1% | 68.2% | 59.4% | 54.5% | 46.3% | 52.2% | 92.6% | 85.2% | 69.6% | 61% | 58.7% | 82.5% | 63.1% | 60% | 52.9% | 60.3% | 93.4% | 61.8% | 60.2% | 56.9% | 52.5% | – | – | – | < 0.001 µM |
| CN(C)CC/C=C1/c2ccccc2COc2ccc(CC(=O)O)cc21 [Olopatadine hydrochloride (Opatanol)] | 0 | 0 | 0 | 0 | – | – | – | – | – | – | – | – | – | – | – | – | – | – | – | – | – | – | – | – | – | – | – | – | – | – | – | – | – | – |
| CCCCCCN(CCCCCC)C(=O)Cc1c(-c2ccc(Cl)cc2)[nH]c2ccc(Cl)cc12 [FGIN-1-43] | 0 | 0 | – | 0 | 0.5 | 104% | 94.9% | 106% | 98.2% | 97% | 91.5% | 106% | 99.4% | 101% | 103% | – | – | – | – | – | 101% | 102% | 101% | 93.5% | 86.8% | 98.4% | 103% | 103% | 104% | 95.2% | > 10 µM | > 10 µM | > 10 µM | > 10 µM |
| CC[N+](CC)(CC)CCOc1cccc(OCC[N+](CC)(CC)CC)c1OCC[N+](CC)(CC)CC [gallamine-triethiodide] | 0 | 0 | – | 0 | 0 | 94.7% | 102% | 94% | 93.1% | 95.6% | 104% | 108% | 104% | 90.8% | 95% | – | – | – | – | – | 104% | 96.2% | 91.5% | 98.2% | 101% | 103% | 101% | 102% | 99.8% | 100% | > 10 µM | > 10 µM | > 10 µM | > 10 µM |
| Cc1c(N)cccc1Cn1ccc(OCCc2cccs2)cc1=O | 0 | 0 | – | 0 | 0 | 93.3% | 104% | 94.1% | 99.8% | 93.2% | 95.9% | 100% | 106% | 102% | 93.4% | – | – | – | – | – | 91.2% | 91.6% | 91.1% | 98.5% | 84.3% | 99.5% | 101% | 95.4% | 97.1% | 95% | > 10 µM | > 10 µM | > 10 µM | > 10 µM |
| CS(=O)(=O)c1ccc(-c2nnc(/C=C/c3nnc(-c4ccc(C#N)cc4)o3)n2-c2ccccc2Cl)nc1 [G007-LK] | 0.1 | 11.1 | 7.5 | 1.4 | 2.6 | 107% | 106% | 101% | 92.8% | 89.5% | 105% | 93.4% | 67.1% | 66% | 77.2% | 99.2% | 105% | 95.1% | 61.7% | 57.8% | 104% | 108% | 93.1% | 83.1% | 94.1% | 94.7% | 98% | 91.8% | 85.8% | 83.5% | > 10 µM | > 10 µM | > 10 µM | – |

Reference: the supplement of paper PMC13380429
